Structures are written as SMILES. Where two headings read alike, the source gives them in different places.

The record followed here is patent publication EP1077967B1, “BIPHENYL OXO-ACETIC ACIDS USEFUL IN THE TREATMENT OF INSULIN RESISTANCE AND HYPERGLYCEMIA” (Wyeth, priority 1998, dated 1999).

One experiment has as its system diabetic (ob/ob) mice. Briefly: Blood glucose lowering in diabetic (ob/ob) mice. The class given is in vivo. The following applies: Mus musculus, po, cells marked a = no significant activity (p<0.05) at this dose.
A further experiment concerns the target T1, Human recombinant PTP1B (Homo sapiens, UniProt P18031).
T1 construct: made in house
T1 sequence (P18031 1-435): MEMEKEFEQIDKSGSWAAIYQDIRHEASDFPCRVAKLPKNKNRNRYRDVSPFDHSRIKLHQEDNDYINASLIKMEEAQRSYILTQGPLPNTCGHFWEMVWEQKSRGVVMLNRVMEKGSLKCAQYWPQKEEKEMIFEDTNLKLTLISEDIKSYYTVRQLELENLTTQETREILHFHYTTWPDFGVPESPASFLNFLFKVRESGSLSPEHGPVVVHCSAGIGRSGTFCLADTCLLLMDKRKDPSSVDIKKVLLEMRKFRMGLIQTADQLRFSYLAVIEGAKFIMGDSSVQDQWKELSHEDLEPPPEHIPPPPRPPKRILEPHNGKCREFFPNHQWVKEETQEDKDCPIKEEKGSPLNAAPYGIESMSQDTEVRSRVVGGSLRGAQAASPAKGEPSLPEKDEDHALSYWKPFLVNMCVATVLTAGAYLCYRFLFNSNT
Briefly: Inhibition of tri-phosphorylated insulin receptor dodecaphosphopeptide dephosphorylation by hPTP1B (malachite green). The class given is biochemical. The settings on record: recombinant PTP1B, dodecaphosphopeptide substrate.

The subject of experiment [1] is rat hepatic microsomal PTPases. Briefly: Inhibition of tri-phosphorylated insulin receptor dodecaphosphopeptide dephosphorylation by rat hepatic PTPases (malachite green). The class given is biochemical. The following applies: rat liver microsomal fraction; for % Change from Control: PTPase activity, compound at 50 µM; for IC50: % Change from Control.
[2] abbreviates: read-out: % Change Insulin from Vehicle.
Setting [3] is: plasma glucose, read-out: % Change Glucose from Vehicle.

As for `CCCCc1sc2ccccc2c1-c1ccc(-c2ccc(OC(Cc3ccccc3)C(=O)O)cc2)cc1` (stereo not shown) [Example 12, 2-[4'-(2-Butyl-benzo[b]thiopen-3-yl)-biphenyl-4-yloxy]-3-phenyl-propionic acid], the change in vivo at 100 mg/kg is -15.8% in the experiment with diabetic (ob/ob) mice (setting [2]) and -27.5% in the experiment on diabetic (ob/ob) mice (setting [3]). Further, the IC50 on Human recombinant PTP1B amounted to 176 nM. Also, the “% Change from Control” value in experiment [1] is listed as -50%.

As for `O=C(O)[C@@H](Cc1ccccc1)Oc1ccc(-c2ccc(-c3c(Cc4ccccc4)oc4ccccc34)cc2)cc1` [Example 15, (2R)-2-[4'-(2-Benzyl-benzofuran-3-yl)-biphenyl-4-yloxy]-3-phenyl-propionic acid], the values for the change in vivo at 100 mg/kg in the experiment on diabetic (ob/ob) mice (setting [2]) and in the experiment with diabetic (ob/ob) mice (setting [3]) were 4.1% and -35%, respectively. Moreover, on Human recombinant PTP1B, the IC50 was 348 nM. Further, the “% Change from Control” value in experiment [1] is on record as -59%.

`C[C@@H](Oc1ccc(-c2ccc(-c3c(Cc4ccccc4)oc4ccccc34)cc2)cc1)C(=O)O` [Example 17, (2R)-2-[4'-(2-Benzyl-benzofuran-3-yl)-biphenyl-4-yloxy]-propionic acid]: the figures for the change in vivo at 100 mg/kg with diabetic (ob/ob) mice (setting [2]) and in the experiment with diabetic (ob/ob) mice (setting [3]) were -94.4% and 13.7%, respectively. Also, the IC50 on Human recombinant PTP1B worked out at 1320 nM. Besides, the “% Change from Control” value in experiment [1] is reported as -63%.

As to `O=C(O)[C@@H](Cc1ccccc1)Oc1ccc(-c2ccc(-c3c(Cc4ccc(F)cc4)sc4ccccc34)cc2)cc1` [Example 19], the change in vivo at 100 mg/kg with diabetic (ob/ob) mice (setting [2]) is 1.1%; in the experiment on diabetic (ob/ob) mice (setting [3]), -27.7%. For the same molecule, the IC50 at Human recombinant PTP1B worked out at 123 nM; in experiment [1] it was 21400 nM.

Turning to `O=C(O)[C@@H](Cc1ccccc1)Oc1ccc(-c2ccc(-c3c(Cc4ccc(O)c(O)c4)sc4ccccc34)cc2)cc1` [Example 28, (2R)-2-{4'-[2-(3,4-Dihydroxy-benzyl)-benzo[b]thiophene-3-yl)-biphenyl-4-yloxy]-3-phenyl-propionic acid], the change in vivo at 25 mg/kg in the experiment on diabetic (ob/ob) mice (dose 25 mg/Kg, plasma glucose, read-out: % Change Glucose from Vehicle) was -20%. Moreover, the figures for the IC50 (at Human recombinant PTP1B; in experiment [1]) were 122 nM and 20600 nM, respectively.
